“Also recorded” adds a separate entry of the source. No end group written: not given here.
Tests used:
male C57BL mice [1] = assay: Screening for intestinal growth effects (small intestine and colon mass relative to body weight, small intestine-colon sensitivity index); assay type: in vivo; conditions: for Small intestine mass relative to [Gly2]GLP-2 / Preferential growth of small intestine versus colon (small intestine-colon sensitivity): 30 nmol/kg s.c. twice daily, ten days; for Small intestine mass relative to [Gly2]GLP-2: equimolar [Gly2]GLP-2; for Preferential growth of small intestine versus colon (small intestine-colon sensitivity): relative to [Gly2]GLP-2; for colon mass relative to body weight, % [Gly2]GLP-2 / small intestine-colon sensitivity index, (SI/Colon)X/(SI/Colon)[Gly2]GLP-2 %: male C57BL mice, 30 nmol/kg s.c. twice daily for ten days; for small intestine-colon sensitivity index, (SI/Colon)X/(SI/Colon)[Gly2]GLP-2 %: third value column
Description: The ability of the present compounds to stimulate intestinal growth was determined in male C57BL mice. Individual groups (n=6) of mice were given 30 nmol/kg of each compound, s.c, twice daily for ten consecutive days. For comparison purposes other groups of animals were given either an equimolar dose of [Gly2]GLP-2 (SEQ ID NO:54) or vehicle (phosphate buffered saline, pH 7.4) in the same dosing regimen. Twenty-four hours after the last dose of compound had been given the mice were sacrificed and the small intestine (from the pylorus to the cecum) and the colon (intestine distal to cecum) was emptied and weighed. To correct for slight difference in body weight (BW), the organ mass of the small intestine (SI) and colon were expressed relative to BW. The non-selective reference compound [Gly2]GLP-2 (SEQ ID NO:54) has been reported to stimulate gastrointestinal growth in both esophagus, stomach, small intestine and colon and to evaluate differences in growth pattern induced by compounds, the small intestine-colon sensitivity index of compound X was calculated as:
(SI/Colon)X/(SI/Colon)[Gly2]GLP-2%
Compounds with a small intestine-colon sensitivity greater than or equal to 1.05 were considered relatively selective for the small intestine (Table 15).
Compounds with a small intestine-colon sensitivity smaller than or equal to 0.95 were considered relatively selective for the colon (Table 15).

male C57BL mice [2] = assay: Dose-response effect on intestinal growth (SI mass, SI-Colon Sensitivity Index, colon and stomach mass); assay type: in vivo; conditions: 5-405 nmol/kg s.c. b.i.d. for three days
Description: Values are means±SEM. *: P<0.05 relative to the equimolar dose of [Gly2]GLP-2 (SEQ ID NO:54).
FIG. 2 is a set of graphs showing full dose-response data of four small intestine selective compounds (compound nos. 1846 (SEQ ID NO:34), 1855 (SEQ ID NO:43), 1848 (SEQ ID NO:36), 1858 (SEQ ID NO:46)) on the Small Intestine (SI)-to-Colon Sensitivity Index mice relative to the non-selective reference compound [Gly2]GLP-2 (SEQ ID NO:54). Compounds were administered by subcutaneous injection b.i.d. for three days in C57BL mice at the following doses: 0 (vehicle), 5, 15, 45, 135, 405 nmol/kg (n=6/dose group). Responses at each dose level were compared with responses obtained at the same dose level in pair-treated mice treated with the non-selective reference compound [Gly2]GLP-2 (SEQ ID NO:54). The SI-Colon Sensitivity Index was calculated as SI-mass relative to colon mass and the Sensitivity Index at each dose level was normalized to the response observed with the non-selective reference compound [Gly2]GLP-2 (SEQ ID NO:54). […] Values are means±SEM. *: P<0.05 relative to the equimolar dose of [Gly2]GLP-2.
FIG. 4 is a set of graphs showing full dose-response data of three small intestine selective compounds (compound nos. 1857 (SEQ ID NO:45), 1820 (SEQ ID NO:10), and 1849 (SEQ ID NO:37)) on the Small Intestine (SI)-to-Colon Sensitivity Index mice relative to the non-selective reference compound [Gly2]GLP-2 (SEQ ID NO:54). Compounds were administered by subcutaneous injection b.i.d. for three days in C57BL mice at the following doses: 0 (vehicle), 5, 15, 45, 135, 405 nmol/kg (n=6/dose group). Responses at each dose level were compared with responses obtained at the same dose level in pair-treated mice treated with the non-selective reference compound [Gly2]GLP-2 (SEQ ID NO:54). The SI-Colon Sensitivity Index was calculated as SI-mass relative to colon mass and the Sensitivity Index at each dose level was normalized to the response observed with the non-selective reference compound [Gly2]GLP-2 (SEQ ID NO:54). […] Values are means±SEM. *: P<0.05 relative to the equimolar dose of [Gly2]GLP-2 (SEQ ID NO:54).
Compounds were administered by subcutaneous injection b.i.d. for three days in C57BL mice at the following doses: 0 (vehicle), 5, 15, 45, 135, 405 nmol/kg (n=6/dose group). […] Values are means±SEM. *: P<0.05 relative to the vehicle.
The dose-response effect of 1820 (SEQ ID NO:10), 1855 (SEQ ID NO:43), ZP1846 (SEQ ID NO:34), 1858 (SEQ ID NO:46), 1849 (SEQ ID NO:37), 1848 (SEQ ID NO:36), and 1857 (SEQ ID NO:45) on small intestinal mass was determined in male C57BL mice. Individual groups (n=6) of mice were given 5, 15, 45, 135 or 405 nmol/kg of each compound, s.c, twice daily for three consecutive days. For comparison purposes other groups of animals were given either equimolar doses of [Gly2]GLP-2 (SEQ ID NO:54) or vehicle (phosphate buffered saline, pH 7.4) in the same dosing regimen. Twenty-four hours after the last dose of compound had been given the mice were sacrificed and the small intestine (from the pylorus to the cecum emptied and weighed to determine the effect on small intestinal mass.

[3] = Chemical stability testing: incubation in HCl, NaOH, H2O2 or NH4HCO3 at 40° C., remaining purity by RP-HPLC; assay type: physicochemical; conditions: 40° C.; for Purity H2O2 0.5% 3 days / Purity HCl 0.1M 12 days / Purity NH4HCO3 0.1M 6 days: 2 mg/ml, relative to the purity at T=0; for Purity H2O2 0.5% 3 days / Purity HCl 0.1M 12 days: RP-HPLC; for Purity NH4HCO3 0.1M 6 days: pH 8, RP-HPLC; for Stability during acid hydrolysis (in words): 0.1 M HCl, 12 days
Description: The GLP-2 analogues were dissolved in purified water and subsequently diluted in solutions containing HCl, NaOH, H2O2 or NH4HCO3. The solutions were incubated at 40° C. to produce hydrolysis, deamidation and oxidation products. The samples were analyzed by RP-HPLC and the percentage of remaining intact compound was determined as a measure for the relative stability. The major degradation products were tentatively identified by LC-MS.
The GLP-2 analogues tested and the reference Gly^2-GLP-2, ZP1559 (SEQ ID NO:54), were dissolved in water and subsequently diluted into solutions containing HCl, NaOH, H2O2 or NH4HCO3. The samples were incubated at 40° C. to generate hydrolysis, deamidation and oxidation products, respectively. The compounds were analysed by RP-HPLC for purity of the original main peak and by LC-MS for confirmation of the identity by mass of the main peak and major degradation products.
The GLP-2 analogues were first dissolved in MQW to a concentration of 4 mg/ml and then further diluted in the stress solutions at a 1:1 ratio (e.g. 125 μl plus 125 μl). The final concentrations were 2 mg/ml of the GLP-2 analogues for stress conditions with 0.1 M HCl, 0.01M NaOH, 0.1 M NH4HCO3 and 0.5% H2O2, respectively.
The solutions were incubated at 40° C. in the dark and then diluted in Eluent A to a concentration of 0.5 mg/ml (addition of 750 μl) prior to analyses by RP-HPLC and by LC-MS.
The RP-HPLC analyses were performed on an Agilent Series 1100 HPLC system under control of the ChemStation (Revision A.08.03 [847]) software from Agilent Technologies, Inc. The raw data and the results of the peak integration were deposited on the ChemStore C/S server by the use of Agilent Technologies Revision B01.03 software.
The results are shown in Table 9 as the compound purity measured by RP-HPLC after incubation under stress conditions. This purity is a measure for the remaining intact compound after incubation in stress solutions, relative to the purity measured a T=0.

Substance | Small intestine mass relative to [Gly2]GLP-2 (male C57BL mice [1]) | Preferential growth of small intestine versus colon (small intestine-colon sensitivity) (male C57BL mice [1]) | colon mass relative to body weight, % [Gly2]GLP-2 (male C57BL mice [1]) | small intestine-colon sensitivity index, (SI/Colon)X/(SI/Colon)[Gly2]GLP-2 % (male C57BL mice [1]) | SI-Colon Sensitivity Index (SI mass relative to colon mass) relative to [Gly2]GLP-2 (male C57BL mice [2]) | Small intestinal mass (SI-BW ratio), maximal response relative to [Gly2]GLP-2 (male C57BL mice [2]) | Purity H2O2 0.5% 3 days [3] [%] | Purity HCl 0.1M 12 days [3] [%] | Purity NH4HCO3 0.1M 6 days [3] [%] | Stability during acid hydrolysis (in words) [3]
[Gly2, Glu3, Ser8, Leu10, Ala11,16,24,28]hGLP-2(1-33)-(Lys)6-NH2 (HGEGSFSSELATILDALAARDFIAWLIATKITDKKKKKK-NH2) [Compound 1849] | increased small intestine mass relative to [Gly2]GLP-2 | supplementary increase in the weight of the small intestine without significant effecting the weight of the colon; also recorded: preferentially stimulating epithelial growth in the small intestine | 95 % [Gly2]GLP-2 | 115 % [Gly2]GLP-2 | increased maximal small intestinal sensitivity relative to [Gly2]GLP-2; also recorded: increased selectivity for causing growth of the small intestine relative to the colon | maximal responses that were significantly greater than [Gly2]GLP-2 | 78 | 64 | 86 | –
[Gly2, Glu3, Ser8, Leu10, Ala11,16,24,28]hGLP-2(1-33)-NH2 (HGEGSFSSELATILDALAARDFIAWLIATKITD-NH2) [Compound 1858] | increased small intestine mass relative to [Gly2]GLP-2 | supplementary increase in the weight of the small intestine without significant effecting the weight of the colon; also recorded: preferentially stimulating epithelial growth in the small intestine | 96 % [Gly2]GLP-2 | 108 % [Gly2]GLP-2 | – | maximal responses that were significant greater than [Gly2]GLP-2 | 60 | 88 | 91 | tendency of slightly higher stability
[Gly2, Thr7, Ser8, Leu10, Ala11,24]hGLP-2(1-30)-K6-NH2 [Compound 1820] | increased small intestine mass relative to [Gly2]GLP-2 | supplementary increase in the weight of the small intestine without significant effecting the weight of the colon; also recorded: preferentially stimulating epithelial growth in the small intestine | – | – | increased maximal small intestinal sensitivity relative to [Gly2]GLP-2 | maximal responses that were significantly greater than [Gly2]GLP-2 | 62 | 45 | 85 | less stable than the remaining six candidates due to acid hydrolysis
[Gly2, Thr7, Ser8, Leu10, Ala11,24]hGLP-2(1-30)-NH2 (HGDGSFTSELATILDNLAARDFIAWLIQTK-NH2) [Compound 1834] | – | without preferential growth in small intestine or colon | – | – | – | – | 53 | 38 | 91 | less stable than the remaining six candidates due to acid hydrolysis
[Leu10, Ala11, Ala24]hGLP-2 (1-33)-K6-NH2 [Compound 1839] | – | preferentially stimulating epithelial growth in the colon | 133 % [Gly2]GLP-2 | 84 % [Gly2]GLP-2 | – | – | – | – | – | –
[Leu10, Ala11, Ala24]hGLP-2 (1-33)-NH2 [Compound 1840] | – | preferentially stimulating epithelial growth in the colon | 131 % [Gly2]GLP-2 | 86 % [Gly2]GLP-2 | – | – | – | – | – | –
[Thr7, Leu10, Ala11, Ala24]hGLP-2 (1-30)-NH2 [Compound 1843] | – | preferentially stimulating epithelial growth in the colon | 130 % [Gly2]GLP-2 | 85 % [Gly2]GLP-2 | – | – | – | – | – | –
[Thr7, Ser8, Leu10, Lys11, Ala24]hGLP-2 (1-30)-NH2 [Compound 1842] | – | without preferential growth in small intestine or colon | – | – | – | – | – | – | – | –

— patent US9580487B2, “Method of treating stomach or bowel-related disorders by administering glucagon-like-peptide-2 (GLP-2) analogues” (Zealand Pharma A/S, priority 2005, dated 2017)
